In patent US20250163057A1, “DCN-1 MODULATING COMPOUNDS AND METHODS OF USE THEREOF” (Cellarity, Inc., priority 2023, published 2025):
Read-outs that look alike come from different tables or passages of the source.

Target: DCN1 (DCUND1) protein PONY domain (Homo sapiens (Human), UniProt Q96GG9)
Experiment: TR-FRET assay, DCN1 binding with FAM-labeled probe
Summary of the method: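 Biotinylated DCN1 PONY domain, labeled with streptavidin-Tb, was competed against a FAM-labeled non-covalent DCN1 inhibitor probe in buffer with TritonX and 200 mM NaCl. Conditions were 5 nM DCN1 with 20 nM FAM-probe, or 0.31 nM DCN1 with 100 nM FAM-plus 800 nM unlabeled probe. The TR-FRET ratio was read at 1, 5 and 24 h (0.1% DMSO).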

[1] = 24 hr after treatment with compound, read-out: TR FRET IC50 24 hr
[2] = TR FRET IC50 1 hr (nM), 1 hr after treatment with compound
[3] = read-out: TR FRET IC50 1 hr, 1 hr after treatment with compound

Chain of DCN1 (DCUND1) protein PONY domain (Q96GG9 60-248): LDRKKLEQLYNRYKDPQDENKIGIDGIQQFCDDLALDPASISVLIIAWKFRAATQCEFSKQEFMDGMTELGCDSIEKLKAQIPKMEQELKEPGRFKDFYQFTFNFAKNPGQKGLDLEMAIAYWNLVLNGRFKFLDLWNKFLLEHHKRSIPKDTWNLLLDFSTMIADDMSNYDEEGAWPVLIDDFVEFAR

CCN1C(=O)[C@H](NC(=O)c2cccc(C(F)(F)F)c2)[C@H](c2ccc(F)cc2)c2c([C@@H](C)N(C)C#N)nn(-c3ccccc3)c21 (relative stereo) [Compound I-79, N-((4R*,5R*)-7-ethyl-4-(4-fluorophenyl)-3-((R)-1-(N-methylcyanamido)ethyl)-6-oxo-1-phenyl-4,5,6,7-tetrahydro-1H-pyrazolo[3,4-b]pyridine-5-yl)-3-(trifluoromethyl)benzamide]
IC50 [1]: 1000 to 3000 nM | IC50 [2]: 1000 to 3000 nM

CCN1C(=O)[C@@H](NC(=O)c2cccc(C(F)(F)F)c2)[C@@H](c2ccc(F)cc2)c2c(CNC(=O)[C@H](C)C#N)nn(-c3ccccc3)c21 (relative stereo) [Compound I-85, N-((4RS,5RS)-3-(((S*)-2-cyanopropanamido)methyl)-7-ethyl-4-(4-fluorophenyl)-6-oxo-1-phenyl-4,5,6,7-tetrahydro-1H-pyrazolo[3,4-b]pyridin-5-yl)-3-(trifluoromethyl)benzamide]
IC50 [1]: 1000 to 3000 nM | IC50 [2]: 1000 to 3000 nM

CCN1C(=O)[C@@H](NC(=O)c2cccc(C(F)(F)F)c2)[C@@H](c2ccc(F)cc2)c2c(CNC(=O)[C@@H](C)C#N)nn(-c3ccccc3)c21 (relative stereo) [Compound I-158, N-((4RS,5RS)-3-(((R*)-2-cyanopropanamido)methyl)-7-ethyl-4-(4-fluorophenyl)-6-oxo-1-phenyl-4,5,6,7-tetrahydro-1H-pyrazolo[3,4-b]pyridin-5-yl)-3-(trifluoromethyl)benzamide]
IC50 [1]: 200 to 1000 nM | IC50 [2]: 200 to 1000 nM

CCN1C(=O)[C@H](NC(=O)c2cccc(C(F)(F)F)c2)[C@@H](c2ccc(F)cc2)c2c(CN(C)C#N)nn(-c3ccccc3)c21 (single isomer, unassigned) [Compound I-82]
IC50 [1]: 1000 to 3000 nM | IC50 [2]: 1000 to 3000 nM

CCN1C(=O)[C@@H](NC(=O)c2cccc(C(F)(F)F)c2)[C@H](c2ccc(F)cc2)c2c(CN(C)C#N)nn(-c3ccccc3)c21 (single isomer, unassigned) [Compound I-133]
IC50 [1]: 200 to 1000 nM | IC50 [2]: 200 to 1000 nM

CCN1C(=O)[C@@H](NC(=O)c2cccc(C(F)(F)F)c2)[C@@H](c2ccc(F)cc2)c2c([C@@H](C)N(C)C#N)nn(-c3ccccc3)c21 [Compound I-44]
IC50 [1]: ≤ 200 nM | IC50 [2]: 200 to 1000 nM

C=C(COC)C(=O)NCc1nn(-c2ccccc2)c2c1[C@@H](c1ccc(F)cc1)[C@H](NC(=O)c1cccc(C(F)(F)F)c1)C(=O)N2CC [Compound I-109]
IC50 [1]: 200 to 1000 nM | IC50 [2]: 200 to 1000 nM

CCN1C(=O)[C@@H](NC(=O)c2cccc(C(F)(F)F)c2)[C@@H](C2CC2)c2c(CN(C)C#N)nn(-c3ccccc3)c21 [Compound I-111]
IC50 [1]: 200 to 1000 nM | IC50 [2]: 1000 to 3000 nM

C=C(COC)C(=O)NCc1nn(-c2ccccc2)c2c1[C@H](c1ccc(F)cc1)[C@H](NC(=O)c1cccc(C(F)(F)F)c1)C(=O)N2CC [Compound I-113]
IC50 [1]: 200 to 1000 nM | IC50 [2]: 200 to 1000 nM

CCN1C(=O)[C@@H](NC(=O)c2cccc(C(F)(F)F)c2)[C@@H](c2ccc(F)cc2)c2c(CNC(=O)C34CC3C4)nn(-c3ccccc3)c21 (stereo partly drawn) [Compound I-114, N-[[(4S, 5S)-7-ethyl-4-(4-fluorophenyl)-6-oxo-1-phenyl-5-[[3-(trifluoromethyl)benzoyl]amino]-4,5-dihydropyrazolo[3,4-b]pyridine-3-yl]methyl]bicyclo[1.1.0]butane-1-carboxamide]
IC50 [1]: 200 to 1000 nM | IC50 [2]: 200 to 1000 nM

CCN1C(=O)[C@@H](NC(=O)c2cccc(C(F)(F)F)c2)[C@@H](c2ccc(F)cc2)c2c(C/C=C/C(=O)NCCN(C)C)nn(-c3ccccc3)c21 [Compound I-118]
IC50 [1]: 200 to 1000 nM | IC50 [2]: 200 to 1000 nM

CCN1C(=O)[C@@H](NC(=O)c2cccc(C(F)(F)F)c2)[C@@H](c2ccc(F)cc2)c2c(CC/C=C/C(N)=O)nn(-c3ccccc3)c21 [Compound I-124]
IC50 [1]: 200 to 1000 nM | IC50 [2]: 200 to 1000 nM

CCN1C(=O)[C@@H](NC(=O)c2cccc(C(F)(F)F)c2)[C@@H](c2ccc(F)cc2)c2c([C@@H](O)CNC#N)nn(-c3ccccc3)c21 [Compound I-130]
IC50 [1]: 200 to 1000 nM | IC50 [2]: 200 to 1000 nM

CCN1C(=O)[C@@H](NC(=O)c2cccc(C(F)(F)F)c2)[C@@H](c2ccc(F)cc2)c2c(CNC(=O)C3=C(C(=O)OC)CCC3)nn(-c3ccccc3)c21 [Compound I-135]
IC50 [1]: 200 to 1000 nM | IC50 [2]: 200 to 1000 nM

C[C@@H](NC#N)c1nn(-c2ccccc2)c2c1[C@H](c1ccc(F)cc1)[C@H](NC(=O)c1cccc(C(F)(F)F)c1)C(=O)N2CCOP(=O)(O)O [Compound I-162]
IC50 [1]: ≤ 200 nM | IC50 [3]: ≤ 200 nM

CCN1C(=O)[C@@H](NC(=O)C2(c3ccccc3)CC2)[C@@H](C2CC2)c2c(C(=O)N3[C@H](C#N)C[C@H]4C[C@H]43)nn(C3CCOCC3)c21 [Compound I-419]
IC50 [1]: 1000 to 3000 nM | IC50 [2]: 1000 to 3000 nM

CCN1C(=O)[C@@H](NC(=O)C2CCN(C)CC2)[C@@H](C2CC2)c2c(C(=O)N3[C@H](C#N)C[C@H]4C[C@H]43)nn(C3CCOCC3)c21 [Compound I-423]
IC50 [1]: 1000 to 3000 nM | IC50 [2]: 1000 to 3000 nM

CCN1C(=O)[C@@H](NC(=O)CC(C)(C)C)[C@@H](C2CC2)c2c(C(=O)N3[C@H](C#N)C[C@H]4C[C@H]43)nn(C3CCOCC3)c21 [Compound I-424]
IC50 [1]: 1000 to 3000 nM | IC50 [2]: 1000 to 3000 nM

CCN1C(=O)[C@@H](NC(=O)CCc2cnn(C)c2)[C@@H](C2CC2)c2c(C(=O)N3[C@H](C#N)C[C@H]4C[C@H]43)nn(C3CCOCC3)c21 [Compound I-433]
IC50 [1]: 1000 to 3000 nM | IC50 [2]: 1000 to 3000 nM

CCN1C(=O)[C@@H](NC(=O)C2CC(=O)N(Cc3ccccc3)C2)[C@@H](C2CC2)c2c(C(=O)N3[C@H](C#N)C[C@H]4C[C@H]43)nn(C3CCOCC3)c21 (stereo partly drawn) [Compound I-435]
IC50 [1]: 1000 to 3000 nM | IC50 [2]: 1000 to 3000 nM

CCN1C(=O)[C@@H](NC(=O)C(C)c2cccc(F)c2)[C@@H](C2CC2)c2c(C(=O)N3[C@H](C#N)C[C@H]4C[C@H]43)nn(C3CCOCC3)c21 (stereo partly drawn) [Compound I-440]
IC50 [1]: 1000 to 3000 nM | IC50 [2]: 1000 to 3000 nM

CCN1C(=O)[C@@H](CC(=O)CC2CC2)[C@@H](C2CC2)c2c(C(=O)N3[C@H](C#N)C[C@H]4C[C@H]43)nn(C3CCOCC3)c21 [Compound I-466]
IC50 [1]: 1000 to 3000 nM | IC50 [2]: 1000 to 3000 nM

CCN1C(=O)[C@@H](NC(=O)c2cccc(C(F)(F)F)c2C)[C@@H](C2CC2)c2c(C(=O)N3[C@H](C#N)C[C@H]4C[C@H]43)nn(C3CCOCC3)c21 [Compound I-468]
IC50 [1]: ≤ 200 nM | IC50 [3]: ≤ 200 nM

CCN1C(=O)[C@@H](NC(=O)c2sc(NC(C)=O)nc2C)[C@@H](C2CC2)c2c(C(=O)N3[C@H](C#N)C[C@H]4C[C@H]43)nn(C3CCOCC3)c21 [Compound I-471]
IC50 [1]: 1000 to 3000 nM | IC50 [2]: 1000 to 3000 nM

CCN1C(=O)[C@@H](NC(=O)c2ccn(C(C)C)n2)[C@@H](C2CC2)c2c(C(=O)N3[C@H](C#N)C[C@H]4C[C@H]43)nn(C3CCOCC3)c21 [Compound I-472]
IC50 [1]: ≤ 200 nM | IC50 [2]: 200 to 1000 nM

CCN1C(=O)[C@@H](NC(=O)c2c(Cl)cccc2Cl)[C@@H](C2CC2)c2c(C(=O)N3[C@H](C#N)C[C@H]4C[C@H]43)nn(C3CCOCC3)c21 [Compound I-473]
IC50 [1]: 1000 to 3000 nM | IC50 [2]: 1000 to 3000 nM

CCN1C(=O)[C@@H](NC(=O)c2cc(S(C)(=O)=O)ccc2F)[C@@H](C2CC2)c2c(C(=O)N3[C@H](C#N)C[C@H]4C[C@H]43)nn(C3CCOCC3)c21 [Compound I-475]
IC50 [1]: 1000 to 3000 nM | IC50 [2]: 1000 to 3000 nM
